Laboratory results as given in US11970498B2, “CDK2 inhibitors” (BLUEPRINT MEDICINES CORPORATION, priority 2021, dated 2024).

Tests used:
[1] = target: T1, CDK1/Cyclin B1, GST-tag (Homo sapiens, UniProt P06493); experiment: CDK1/Cyclin B1 biochemical phosphorylation assay (Caliper mobility shift); details: apparent IC50; 1.0 mM ATP or ATP Km; 1.5 nM enzyme; 25° C.
T1 construct: GST
How it was run: (§1)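 7.5 µM 5-FAM-QSPKKG-CONH2 peptide phosphorylated by CDK2/Cyclin E (1.25 nM) or GST-CDK1/Cyclin B1 (1.5 nM) at 1.0 mM ATP or ATP Km, in HEPES pH 7.5, MgCl2, Brij-35, DTT, 1% DMSO, 25 °C to 10–20% conversion. EDTA stop; Caliper mobility-shift readout; apparent IC50 from percent activity vs log concentration.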

[2] = target: CDK2/Cyclin E (Homo sapiens, UniProt P24941); experiment: CDK2/Cyclin E biochemical phosphorylation assay (Caliper mobility shift); details: apparent IC50; 1.0 mM ATP or ATP Km; 1.25 nM enzyme; 25° C.; read-out: CDK2/cyclin E1 IC50
How it was run: as §1

T1 sequence (P06493 whole entry): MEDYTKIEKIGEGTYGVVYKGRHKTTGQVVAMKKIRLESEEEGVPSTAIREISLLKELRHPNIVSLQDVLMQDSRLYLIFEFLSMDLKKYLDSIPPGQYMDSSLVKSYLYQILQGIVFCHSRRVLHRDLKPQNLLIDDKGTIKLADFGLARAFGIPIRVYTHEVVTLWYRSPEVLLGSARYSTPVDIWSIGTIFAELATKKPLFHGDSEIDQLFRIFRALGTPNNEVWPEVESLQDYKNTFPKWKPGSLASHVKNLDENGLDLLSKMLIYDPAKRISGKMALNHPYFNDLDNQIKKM
T1 sequence (P14635 whole entry partner): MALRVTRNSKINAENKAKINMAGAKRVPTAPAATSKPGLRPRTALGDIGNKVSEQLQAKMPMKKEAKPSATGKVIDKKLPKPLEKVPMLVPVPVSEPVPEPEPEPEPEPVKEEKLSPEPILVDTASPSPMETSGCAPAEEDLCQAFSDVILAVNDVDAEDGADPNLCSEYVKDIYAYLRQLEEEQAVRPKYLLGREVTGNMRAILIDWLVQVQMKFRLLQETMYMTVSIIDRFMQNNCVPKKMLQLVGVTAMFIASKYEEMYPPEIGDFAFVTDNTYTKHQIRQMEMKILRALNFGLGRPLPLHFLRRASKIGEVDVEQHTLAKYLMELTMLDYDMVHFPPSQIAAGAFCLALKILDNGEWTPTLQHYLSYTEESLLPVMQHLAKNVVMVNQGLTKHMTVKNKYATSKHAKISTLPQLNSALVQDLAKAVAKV

SMILES | IC50 [1] | IC50 [2]
C[C@@H](O)c1nn([C@@H](C)C2CCOCC2)c2nc(Nc3cc(OC(F)F)[nH]n3)cnc12 (single isomer, unassigned) [Example 182, (S)-1-(6-((5-(difluoromethoxy)-1H-pyrazol-3-yl)amino)-1-((S)-1-(tetrahydro-2H-pyran-4-yl)ethyl)-1H-pyrazolo[3,4-b]pyrazin-3-yl)ethan-1-ol or (R)-1-(6-((5-(difluoromethoxy)-1H-pyrazol-3-yl)amino)-1-((S)-1-(tetrahydro-2H-pyran-4-yl)ethyl)-1H-pyrazolo[3,4-b]pyrazin-3-yl)ethan-1-ol] | ≥ 500 nM | ≤ 10 nM
FC[C@H](C1CCOCC1)n1ncc2ncc(Nc3cc(OC(F)F)[nH]n3)nc21 (single isomer, unassigned) [Example 183] | ≥ 500 nM | 30 to 100 nM
CC1(C)C[C@H](Cn2ncc3ncc(Nc4cc(OC(F)F)[nH]n4)nc32)C(=O)N1 (single isomer, unassigned) [Example 184, (R)-3-((6-((5-(difluoromethoxy)-1H-pyrazol-3-yl)amino)-1H-pyrazolo[3,4-b]pyrazin-1-yl)methyl)-5,5-dimethylpyrrolidin-2-one or (S)-3-((6-((5-(difluoromethoxy)-1H-pyrazol-3-yl)amino)-1H-pyrazolo[3,4-b]pyrazin-1-yl)methyl)-5,5-dimethylpyrrolidin-2-one] | ≥ 500 nM | 30 to 100 nM
CC1(C)C[C@H](Cn2ncc3ncc(Nc4cc(OC(F)F)[nH]n4)nc32)C(=O)N1 (single isomer, unassigned) [Example 185, (S)-3-((6-((5-(difluoromethoxy)-1H-pyrazol-3-yl)amino)-1H-pyrazolo[3,4-b]pyrazin-1-yl)methyl)-5,5-dimethylpyrrolidin-2-one or (R)-3-((6-((5-(difluoromethoxy)-1H-pyrazol-3-yl)amino)-1H-pyrazolo[3,4-b]pyrazin-1-yl)methyl)-5,5-dimethylpyrrolidin-2-one] | ≥ 500 nM | 30 to 100 nM
COc1cc(Nc2cnc3cnn([C@@H](C)c4cc(F)ccn4)c3n2)n[nH]1 (single isomer, unassigned) [Example 186, (S)-1-(1-(4-fluoropyridin-2-yl)ethyl)-N-(5-methoxy-1H-pyrazol-3-yl)-1H-pyrazolo[3,4-b]pyrazin-6-amine or (R)-1-(1-(4-fluoropyridin-2-yl)ethyl)-N-(5-methoxy-1H-pyrazol-3-yl)-1H-pyrazolo[3,4-b]pyrazin-6-amine] | ≥ 500 nM | 10 to 20 nM
COc1cc(Nc2cnc3cnn([C@@H](C)c4cc(F)ccn4)c3n2)n[nH]1 (single isomer, unassigned) [Example 187, (R)-1-(1-(4-fluoropyridin-2-yl)ethyl)-N-(5-methoxy-1H-pyrazol-3-yl)-1H-pyrazolo[3,4-b]pyrazin-6-amine or (S)-1-(1-(4-fluoropyridin-2-yl)ethyl)-N-(5-methoxy-1H-pyrazol-3-yl)-1H-pyrazolo[3,4-b]pyrazin-6-amine] | ≥ 500 nM | > 100 nM
C[C@@H](c1cc(Cl)ccn1)n1ncc2ncc(Nc3cc(OC(F)F)[nH]n3)nc21 (single isomer, unassigned) [Example 188, (S)-1-(1-(4-chloropyridin-2-yl)ethyl)-N-(5-(difluoromethoxy)-1H-pyrazol-3-yl)-1H-pyrazolo[3,4-b]pyrazin-6-amine or (R)-1-(1-(4-chloropyridin-2-yl)ethyl)-N-(5-(difluoromethoxy)-1H-pyrazol-3-yl)-1H-pyrazolo[3,4-b]pyrazin-6-amine] | ≥ 500 nM | 30 to 100 nM
C[C@@H](c1cc(Cl)ccn1)n1ncc2ncc(Nc3cc(OC(F)F)[nH]n3)nc21 (single isomer, unassigned) [Example 189, (R)-1-(1-(4-chloropyridin-2-yl)ethyl)-N-(5-(difluoromethoxy)-1H-pyrazol-3-yl)-1H-pyrazolo[3,4-b]pyrazin-6-amine or (S)-1-(1-(4-chloropyridin-2-yl)ethyl)-N-(5-(difluoromethoxy)-1H-pyrazol-3-yl)-1H-pyrazolo[3,4-b]pyrazin-6-amine] | ≥ 500 nM | > 100 nM
N#C[C@H]1C[C@H](Cn2ncc3ncc(Nc4cc(OC(F)F)[nH]n4)nc32)C1 (single isomer, unassigned) [Example 190, (1r,3r)-3-((6-((5-(difluoromethoxy)-1H-pyrazol-3-yl)amino)-1H-pyrazolo[3,4-b]pyrazin-1-yl)methyl)cyclobutane-1-carbonitrile or (1s,3s)-3-((6-((5-(difluoromethoxy)-1H-pyrazol-3-yl)amino)-1H-pyrazolo[3,4-b]pyrazin-1-yl)methyl)cyclobutane-1-carbonitrile] | ≥ 500 nM | > 100 nM

Results, then the compound that gave them:

IC50 [1] | IC50 [2] | SMILES
100 to 500 nM | ≤ 10 nM | C[C@@H](O)c1nn(CC2CCOCC2)c2nc(Nc3cc(OC(F)F)[nH]n3)cnc12 (single isomer, unassigned) [Example 175, (R)-1-(6-((5-(difluoromethoxy)-1H-pyrazol-3-yl)amino)-1-((tetrahydro-2H-pyran-4-yl)methyl)-1H-pyrazolo[3,4-b]pyrazin-3-yl)ethan-1-ol or (S)-1-(6-((5-(difluoromethoxy)-1H-pyrazol-3-yl)amino)-1-((tetrahydro-2H-pyran-4-yl)methyl)-1H-pyrazolo[3,4-b]pyrazin-3-yl)ethan-1-ol]
100 to 500 nM | ≤ 10 nM | C[C@@H](O)c1nn(CC2CCOCC2)c2nc(Nc3cc(OC(F)F)[nH]n3)cnc12 (single isomer, unassigned) [Example 176, (S)-1-(6-((5-(difluoromethoxy)-1H-pyrazol-3-yl)amino)-1-((tetrahydro-2H-pyran-4-yl)methyl)-1H-pyrazolo[3,4-b]pyrazin-3-yl)ethan-1-ol or (R)-1-(6-((5-(difluoromethoxy)-1H-pyrazol-3-yl)amino)-1-((tetrahydro-2H-pyran-4-yl)methyl)-1H-pyrazolo[3,4-b]pyrazin-3-yl)ethan-1-ol]
≥ 500 nM | ≤ 10 nM | C[C@@H](O)c1nn([C@@H](C)c2cccnc2)c2nc(Nc3cc(OC(F)F)[nH]n3)cnc12 (single isomer, unassigned) [Example 177, (R)-1-(6-((5-(difluoromethoxy)-1H-pyrazol-3-yl)amino)-1-((S)-1-(pyridin-3-yl)ethyl)-1H-pyrazolo[3,4-b]pyrazin-3-yl)ethan-1-ol or (S)-1-(6-((5-(difluoromethoxy)-1H-pyrazol-3-yl)amino)-1-((S)-1-(pyridin-3-yl)ethyl)-1H-pyrazolo[3,4-b]pyrazin-3-yl)ethan-1-ol]
≥ 500 nM | ≤ 10 nM | C[C@@H](O)c1nn([C@@H](C)c2cccnc2)c2nc(Nc3cc(OC(F)F)[nH]n3)cnc12 (single isomer, unassigned) [Example 178, (S)-1-(6-((5-(difluoromethoxy)-1H-pyrazol-3-yl)amino)-1-((S)-1-(pyridin-3-yl)ethyl)-1H-pyrazolo[3,4-b]pyrazin-3-yl)ethan-1-ol or (R)-1-(6-((5-(difluoromethoxy)-1H-pyrazol-3-yl)amino)-1-((S)-1-(pyridin-3-yl)ethyl)-1H-pyrazolo[3,4-b]pyrazin-3-yl)ethan-1-ol]
≥ 500 nM | 30 to 100 nM | O[C@@H]1C[C@H]1Cn1ncc2ncc(Nc3cc(OC(F)F)[nH]n3)nc21 (single isomer, unassigned) [Example 179, (1R,2S)-2-((6-((5-(difluoromethoxy)-1H-pyrazol-3-yl)amino)-1H-pyrazolo[3,4-b]pyrazin-1-yl)methyl)cyclopropan-1-ol or (1S,2R)-2-((6-((5-(difluoromethoxy)-1H-pyrazol-3-yl)amino)-1H-pyrazolo[3,4-b]pyrazin-1-yl)methyl)cyclopropan-1-ol]
≥ 500 nM | 20 to 30 nM | O[C@@H]1C[C@H]1Cn1ncc2ncc(Nc3cc(OC(F)F)[nH]n3)nc21 (single isomer, unassigned) [Example 180, (1S,2R)-2-((6-((5-(difluoromethoxy)-1H-pyrazol-3-yl)amino)-1H-pyrazolo[3,4-b]pyrazin-1-yl)methyl)cyclopropan-1-ol or (1R,2S)-2-((6-((5-(difluoromethoxy)-1H-pyrazol-3-yl)amino)-1H-pyrazolo[3,4-b]pyrazin-1-yl)methyl)cyclopropan-1-ol]
≥ 500 nM | ≤ 10 nM | C[C@@H](O)c1nn([C@@H](C)C2CCOCC2)c2nc(Nc3cc(OC(F)F)[nH]n3)cnc12 (single isomer, unassigned) [Example 181, (R)-1-(6-((5-(difluoromethoxy)-1H-pyrazol-3-yl)amino)-1-((S)-1-(tetrahydro-2H-pyran-4-yl)ethyl)-1H-pyrazolo[3,4-b]pyrazin-3-yl)ethan-1-ol or (S)-1-(6-((5-(difluoromethoxy)-1H-pyrazol-3-yl)amino)-1-((S)-1-(tetrahydro-2H-pyran-4-yl)ethyl)-1H-pyrazolo[3,4-b]pyrazin-3-yl)ethan-1-ol]
100 to 500 nM | ≤ 10 nM | N#C[C@H]1C[C@H](Cn2ncc3ncc(Nc4cc(OC(F)F)[nH]n4)nc32)C1 (single isomer, unassigned) [Example 191, (1s,3s)-3-((6-((5-(difluoromethoxy)-1H-pyrazol-3-yl)amino)-1H-pyrazolo[3,4-b]pyrazin-1-yl)methyl)cyclobutane-1-carbonitrile or (1r,3r)-3-((6-((5-(difluoromethoxy)-1H-pyrazol-3-yl)amino)-1H-pyrazolo[3,4-b]pyrazin-1-yl)methyl)cyclobutane-1-carbonitrile]
